Patent US20250122207A1, “AP2 ASSOCIATED KINASE 1 INHIBITORS AND USES THEREOF” (Satellos Bioscience Inc., priority 2023, published 2025)
pIC50: −log10 of the molar value. Like-named read-outs stand apart in the source and are kept apart here.

Legend:
[1] = target: T1, BIKE (amino acids S38-E345) (K320A, K321A) (Homo sapiens, UniProt Q9NSY1, K320A/K321A); assay: BIKE pSENs assay; type: biochemical
T1 construct: against BIKE (amino acids S38-E345) (K320A, K321A); 6His (N, cleaved yes)
In short: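 E. coli-expressed, biotinylated, tag-free BIKE at 20 nM in HEPES pH 7.5 buffer with 10 mM MgCl2 preincubated with compound 15 min at 25° C. Reaction started with 30 uM AQT0759 sensor peptide and 40 uM ATP (concentrations before 1:1 mixing).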

[2] = target: T2, AAK1 (amino acids T27-A365) (Homo sapiens, UniProt Q2M2I8); assay: AAK1 pSENs assay; type: biochemical
T2 construct: against AAK1 (amino acids T27-A365); 6His (N, cleaved yes)
In short: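 Biotinylated, tag-free AAK1 T27-A365 expressed in E. coli was held at 20 nM in enzyme solution (HEPES pH 7.5, 10 mM MgCl2, DTT, EGTA, Brij35, BSA) and preincubated with compound for 15 min at 25 °C. The reaction was started with an equal volume of substrate solution containing 30 uM AQT0759 peptide and 70 uM ATP. IC50 determined.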

[3] = target: AAK1 (Homo sapiens, UniProt Q2M2I8); assay: pAP2M1 cell-based assay (in-cell Western)
Description: pAP2M1 Cell-Based Assay (in-Cell Western):
The plate was read on Licor Odyssey CLx imaging system (LICOR) to acquire fluorescence intensity at 700 channel and 800 channel.
Data analysis: Fluorescence intensity at 700 channel served as internal standard and 800 channel were normalized with 700 channel.

[4] = target: T3, GAK (amino acids Q25-N335) (Homo sapiens, UniProt O14976); assay: GAK pSENs assay; type: biochemical
T3 construct: against GAK (amino acids Q25-N335); 6His (N, cleaved yes)
T3 sequence (O14976 25-335): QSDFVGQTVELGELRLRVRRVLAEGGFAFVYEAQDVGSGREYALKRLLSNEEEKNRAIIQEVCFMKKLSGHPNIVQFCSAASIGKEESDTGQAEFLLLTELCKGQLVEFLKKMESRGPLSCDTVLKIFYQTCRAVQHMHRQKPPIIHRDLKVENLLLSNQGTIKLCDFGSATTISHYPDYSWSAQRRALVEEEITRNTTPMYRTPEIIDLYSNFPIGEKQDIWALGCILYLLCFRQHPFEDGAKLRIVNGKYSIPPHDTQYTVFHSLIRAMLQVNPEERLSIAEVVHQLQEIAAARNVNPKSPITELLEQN
Description: The recombinant proteins were independently expressed in Escherichia coli BL21(DE3) cells cultured in Luria-Bertani (LB) medium until OD600 reached 0.6-0.8, then cooled to 15° C. and supplemented with 0.5 mM isopropyl 1-thio-D-galactopyranoside (IPTG) induce protein expression 16 h. Cells were harvested and resuspended in lysis buffer (50 mM HEPES pH 7.5, 500 mM NaCl, 5 mM imidazole, 5% glycerol, 0.5 mM Tris (2-carboxyethyl) phosphine (TCEP), cOmplete Protease Inhibitor Tablet (Roche)) and lysed by microfludics high pressure homogenizer (UH-06, Union-Biotech). Proteins were purified using […] chromatography (His FF column, Bestchrom) and eluted stepwise in binding buffer with 20-300 mM imidazole. Removal of the hexahistidine tag was performed at 4° C. overnight using recombinant TEV protease and reacted with BirA to obtain the corresponding biotinylated-AAK1, BIKE or GAK proteins. Further separated in the reverse Strep column (Strep-Tactin® XT, IBA). The Biotin elution sample was collected containing untagged biotinylated protein was then purified by Ion-exchange chromatography (Mono Q 10/100 GL, Cytiva) and Size-exclusion chromatography (HiLoad 16/600 Superdex 200 pg, Cytiva). The pure protein was stored in a storage buffer 50 mM HEPES (pH 7.5), 300 mM NaCl, 5% glycerol at −80° C. Protein were characterized by SDS-PAGE, LC-MS and aSEC.
This example describes one illustrative method for determining the IC50 of the compounds of the present invention against GAK (amino acids Q25-N335).

[5] = class symbols, read-out: BIKE pSENs: IC50
[6] = class symbols, read-out: AAK1 pSENs: EIC50
[7] = Hela cells co-transfected with AP2M1 and AAK1, 3 hr treatment, class symbols, read-out: AAK1 In-cell Western: IC50
[8] = class symbols, read-out: GAK pSENs:IC50

T1 sequence (Q9NSY1 38-345 K320A/K321A): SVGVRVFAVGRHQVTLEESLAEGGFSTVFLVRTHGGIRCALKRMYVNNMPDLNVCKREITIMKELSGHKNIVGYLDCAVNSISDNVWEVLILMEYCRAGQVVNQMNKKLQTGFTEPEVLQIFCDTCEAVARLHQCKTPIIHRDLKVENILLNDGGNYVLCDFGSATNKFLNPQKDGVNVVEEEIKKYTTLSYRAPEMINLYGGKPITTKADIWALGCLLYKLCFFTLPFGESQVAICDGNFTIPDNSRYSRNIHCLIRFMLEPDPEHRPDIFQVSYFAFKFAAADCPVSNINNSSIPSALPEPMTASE
Chain of AAK1 (Q2M2I8 whole entry): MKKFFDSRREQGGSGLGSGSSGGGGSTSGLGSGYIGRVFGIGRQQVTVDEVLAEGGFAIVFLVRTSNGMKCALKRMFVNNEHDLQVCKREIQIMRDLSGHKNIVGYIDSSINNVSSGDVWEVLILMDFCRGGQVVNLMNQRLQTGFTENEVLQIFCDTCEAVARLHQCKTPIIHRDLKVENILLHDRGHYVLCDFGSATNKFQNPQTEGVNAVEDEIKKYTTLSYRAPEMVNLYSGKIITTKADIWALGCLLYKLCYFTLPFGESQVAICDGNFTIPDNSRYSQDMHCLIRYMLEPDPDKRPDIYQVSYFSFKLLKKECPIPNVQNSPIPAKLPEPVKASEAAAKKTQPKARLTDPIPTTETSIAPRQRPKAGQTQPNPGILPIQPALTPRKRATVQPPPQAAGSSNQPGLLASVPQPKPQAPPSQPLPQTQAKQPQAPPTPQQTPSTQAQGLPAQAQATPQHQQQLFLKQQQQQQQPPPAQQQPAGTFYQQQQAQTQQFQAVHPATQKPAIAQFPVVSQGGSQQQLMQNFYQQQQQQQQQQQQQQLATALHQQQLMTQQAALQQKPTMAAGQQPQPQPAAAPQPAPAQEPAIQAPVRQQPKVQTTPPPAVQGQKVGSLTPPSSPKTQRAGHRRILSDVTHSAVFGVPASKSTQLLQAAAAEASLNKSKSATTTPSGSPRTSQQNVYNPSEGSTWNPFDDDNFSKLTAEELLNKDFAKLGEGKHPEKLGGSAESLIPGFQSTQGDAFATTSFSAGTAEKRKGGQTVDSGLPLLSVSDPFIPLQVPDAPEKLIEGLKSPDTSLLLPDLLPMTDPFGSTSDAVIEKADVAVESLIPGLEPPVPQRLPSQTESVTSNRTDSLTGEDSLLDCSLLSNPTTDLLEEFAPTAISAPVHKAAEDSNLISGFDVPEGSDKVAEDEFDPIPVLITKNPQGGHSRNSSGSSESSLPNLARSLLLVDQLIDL
T2 sequence (Q2M2I8 27-365): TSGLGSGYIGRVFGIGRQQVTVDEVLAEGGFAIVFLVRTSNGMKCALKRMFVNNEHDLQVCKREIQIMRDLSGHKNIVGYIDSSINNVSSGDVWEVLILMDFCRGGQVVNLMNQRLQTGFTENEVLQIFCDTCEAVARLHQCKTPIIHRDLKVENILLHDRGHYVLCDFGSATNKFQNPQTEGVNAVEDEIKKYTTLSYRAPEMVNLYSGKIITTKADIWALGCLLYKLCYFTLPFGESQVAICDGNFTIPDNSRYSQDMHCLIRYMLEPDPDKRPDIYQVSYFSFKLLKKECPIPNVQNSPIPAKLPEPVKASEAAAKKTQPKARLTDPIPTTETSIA

Row | pIC50 [1, 5] | pIC50 [2, 6] | pIC50 [3, 7] | pIC50 [4, 8] | SMILES | pIC50 [1] | pIC50 [2] | pIC50 [3] | pIC50 [4]
1 | – | – | – | – | c1cc2nc(N3CCNCC3)ccn2n1 [Compound I-105, 5-piperazin-1-ylpyrazolo[1,5-a]pyrimidine] | < 5.82 | < 5.82 | < 5.82 | < 5.82
2 | 6.82 to 7.29 | 7.30 to 9.00 | 7.30 to 9.00 | 6.82 to 7.29 | C#CC1(OC(=O)N2CCN(c3ccn4ncc(-c5cccnc5OC5CC5)c4n3)CC2)CCNC1 (centres unmarked) [Compound I-16-7, 3-ethynylpyrrolidin-3-yl-4-(3-(2-cyclopropoxypyridin-3-yl)pyrazolo[1,5-a]pyrimidin-5-yl)piperazine-1-carboxylate] | – | – | – | –
3 | 5.82 to 6.30 | 7.30 to 9.00 | 6.30 to 6.82 | 5.82 to 6.30 | C[C@@]1(OC(=O)N2CCN(c3ccn4ncc(-c5cccnc5OC5CC5)c4n3)CC2)CCN(CC(N)=O)C1 [Compound I-51, (R)-1-(2-amino-2-oxoethyl)-3-(methylpyrrolidin-3-yl)-4-(3-(2-cyclopropoxypyridin-3-yl)pyrazolo[1,5-a]pyrimidin-5-yl)piperazine-1-carboxylate] | – | – | – | –
4 | < 5.82 | < 5.82 | < 5.82 | < 5.82 | CN1C[C@@H](OC(=O)N2CCN(c3ccn4ncc(Cl)c4n3)CC2)CC1=O [Compound I-96, [(3S)-1-methyl-5-oxo-pyrrolidin-3-yl]-4-(3-chloropyrazolo[1,5-a]pyrimidin-5-yl)piperazine-1-carboxylate] | – | – | – | –
5 | 6.30 to 6.82 | 7.30 to 9.00 | 6.30 to 6.82 | 6.30 to 6.82 | CC(C)Oc1ncccc1-c1cnn2ccc(N3CCN(C(=O)OC4(C)CCNC4)CC3)nc12 (centres unmarked) [Compound I-21-5, (3-methylpyrrolidin-3-yl)-4-[3-(2-isopropoxy-3-pyridyl)pyrazolo[1,5-a]pyrimidin-5-yl]piperazine-1-carboxylate] | – | – | – | –
6 | 5.82 to 6.30 | 7.30 to 9.00 | 5.82 to 6.30 | 5.82 to 6.30 | O=C1C[C@H](OC(=O)N2CCN(c3ccn4ncc(-c5cccnc5OC5CC5)c4n3)CC2)CN1CCOCc1ccccc1 [Compound I-37, [(3S)-1-(2-benzyloxyethyl)-5-oxo-pyrrolidin-3-yl]-4-[3-[2-(cyclopropoxy)-3-pyridyl]pyrazolo[1,5-a]pyrimidin-5-yl]piperazine-1-carboxylate] | – | – | – | –
7 | 6.30 to 6.82 | 7.30 to 9.00 | < 5.82 | 5.82 to 6.30 | CN1C[C@@H](OC(=O)N2CCN(c3ccn4ncc(-c5cc(OC(F)(F)F)cnc5OC5CC5)c4n3)CC2)CC1=O [Compound I-88] | – | – | – | –
8 | 6.30 to 6.82 | 7.30 to 9.00 | 6.30 to 6.82 | 5.82 to 6.30 | C[C@@]1(OC(=O)N2CCN(c3ccn4ncc(-c5cccnc5OC5CC5)c4n3)CC2)CCNC1 [Compound I-14, [(3R)-3-Methylpyrrolidin-3-yl]-4-[3-[2-(cyclopropoxy)-3-pyridyl]pyrazolo[1,5-a]pyrimidin-5-yl]piperazine-1-carboxylate] | – | – | – | –
9 | 6.82 to 7.29 | 7.30 to 9.00 | 6.82 to 7.29 | 6.82 to 7.29 | CC(C)Oc1ncccc1-c1cnn2ccc(N3CCN(C(=O)O[C@]4(C)CCNC4)CC3)nc12 [Compound I-22, [(3R)-3-methylpyrrolidin-3-yl]4-[3-(2-isopropoxy-3-pyridyl)pyrazolo[1,5-a]pyrimidin-5-yl]piperazine-1-carboxylate] | – | – | – | –
10 | 6.30 to 6.82 | 5.82 to 6.30 | < 5.82 | < 5.82 | Oc1ncccc1-c1cnn2ccc(N3CCNCC3)nc12 [Compound I-106, 3-(5-piperazin-1-ylpyrazolo[1,5-a]pyrimidin-3-yl)pyridin-2-ol] | – | – | – | –
11 | 6.82 to 7.29 | 7.30 to 9.00 | 5.82 to 6.30 | 5.82 to 6.30 | COc1ncccc1-c1cnn2ccc(NCCN(C)C(=O)O[C@H]3CO[C@H]4OCC[C@H]43)nc12 [Compound I-70, (3R,3aS,6aR)-hexahydrofuro[2,3-b]furan-3-yl (2-((3-(2-methoxypyridin-3-yl)pyrazolo[1,5-a]pyrimidin-5-yl)amino)ethyl)(methyl)carbamate] | – | – | – | –
12 | 5.82 to 6.30 | 7.30 to 9.00 | 5.82 to 6.30 | 5.82 to 6.30 | CN(CCNc1ccn2ncc(-c3cccnc3OC3CC3)c2n1)C(=O)O[C@H]1CO[C@H]2OCC[C@H]21 [Compound I-71, (3R,3aS,6aR)-hexahydrofuro[2,3-b]furan-3-yl (2-((3-(2-cyclopropoxypyridin-3-yl)pyrazolo[1,5-a]pyrimidin-5-yl)amino)ethyl)(methyl)carbamate] | – | – | – | –
13 | – | – | – | – | Brc1cnn2ccc(N3CCNCC3)nc12 [Compound I-103, 3-bromo-5-piperazin-1-yl-pyrazolo[1,5-a]pyrimidine] | < 5.82 | < 5.82 | < 5.82 | < 5.82

Row | SMILES | pIC50 [1, 5] | pIC50 [2, 6] | pIC50 [3, 7] | pIC50 [4, 8] | pIC50 [1] | pIC50 [2] | pIC50 [3] | pIC50 [4]
14 | CC1(OC(=O)N2CCN(c3ccn4ncc(-c5ccc(C(N)=O)cc5)c4n3)CC2)COC1 [Compound I-3, (3-methyloxetan-3-yl)-4-[3-(4-carbamoylphenyl)pyrazolo[1,5-a]pyrimidin-5-yl]piperazine-1-carboxylate] | 6.82 to 7.29 | 7.30 to 9.00 | 5.82 to 6.30 | 5.82 to 6.30 | – | – | – | –
15 | CC(C)(C)OC(=O)N1CCC(N2C[C@H](OC(=O)N3CCN(c4ccn5ncc(-c6cccnc6OC6CC6)c5n4)CC3)CC2=O)CC1 [Compound I-31, (R)-1-(1-(tert-Butoxycarbonyl)piperidin-4-yl)-5-oxopyrrolidin-3-yl 4-(3-(2-cyclopropoxypyridin-3-yl)pyrazolo[1,5-a]pyrimidin-5-yl)piperazine-1-carboxylate] | 6.30 to 6.82 | 6.30 to 6.82 | < 5.82 | 5.82 to 6.30 | – | – | – | –
16 | C#CC1(OC(=O)N2CCN(c3ccn4ncc(-c5cccnc5OC)c4n3)CC2)CCNC1 (centres unmarked) [Compound I-9, (3-Ethynylpyrrolidin-3-yl) 4-[3-(2-methoxy-3-pyridyl)pyrazolo[1,5-a]pyrimidin-5-yl]piperazine-1-carboxylate] | 7.30 to 9.00 | 7.30 to 9.00 | 6.82 to 7.29 | 6.30 to 6.82 | – | – | – | –
17 | CN1C[C@H](OC(=O)N2CCN(c3ccn4ncc(-c5cccnc5OC5CC5)c4n3)CC2)CC1=O [Compound I-94] | – | 7.30 to 9.00 | 5.82 to 6.30 | – | 6.30 to 6.82 | – | – | < 5.82
18 | CN(CCNc1ccn2ncc(-c3cccnc3OC3CC3)c2n1)C(=O)OC(C)(C)C [Compound I-12, tert-butyl N-[2-[[3-[2-(Cyclopropoxy)-3-pyridyl]pyrazolo[1,5-a]pyrimidin-5-yl]amino]ethyl]-N-methyl-carbamate] | 6.82 to 7.29 | 7.30 to 9.00 | 6.30 to 6.82 | 5.82 to 6.30 | – | – | – | –
19 | COc1ncccc1-c1cnn2ccc(N3CCN(C(=O)OC4CCNC4)CC3)nc12 (centres unmarked) [Compound I-5, Pyrrolidin-3-yl4-[3-(2-methoxy-3-pyridyl)pyrazolo[1,5-a]pyrimidin-5-yl]piperazine-1-carboxylate] | 7.30 to 9.00 | 7.30 to 9.00 | 6.30 to 6.82 | 5.82 to 6.30 | – | – | – | –
20 | Clc1cnn2ccc(N3CCNCC3)nc12 [Compound I-104, 3-chloro-5-piperazin-1-yl-pyrazolo[1,5-a]pyrimidine] | < 5.82 | < 5.82 | < 5.82 | < 5.82 | – | – | – | –
